No end group written: not given here.
Experiments:
S. aureus (MRSA) = type: cell-based, Staphylococcus aureus; settings: Table 15, strain SAP0017; in µg/mL
S. epidermidis C621 = type: cell-based, Staphylococcus epidermidis; settings: Table 15
E. coli UB1005 = type: cell-based, Escherichia coli; settings: Table 14
S. typhimurium 14028S = type: cell-based, Salmonella typhimurium; settings: Table 14
P. aeruginosa H374 = type: cell-based, Pseudomonas aeruginosa; settings: Table 14; in µg/mL
[1] = tested on: Pseudomonas aeruginosa H187; type: cell-based; settings: Table 15; in µg/mL
Candida albicans 105 = type: cell-based; settings: Table 15; in µg/mL

| Substance | MIC S. aureus SAP0017 (S. aureus (MRSA)) | MIC S. epidermidis C621 (S. epidermidis C621) [µg/mL] | MIC E. coli UB1005 (E. coli UB1005) [µg/mL] | MIC S. typhimurium 14028S (S. typhimurium 14028S) [µg/mL] | MIC P. aeruginosa H374 (P. aeruginosa H374) | MIC P. aeruginosa H187 [1] | MIC C. albicans 105 (Candida albicans 105) |
| --- | --- | --- | --- | --- | --- | --- | --- |
| FAKLLAKLAKAKG-NH2 [P96 (62)] | >128 | > 128 | > 128 | > 128 | >128 | >128 | >128 |
| FAKLLAKAFKKAL-NH2 [P114 (78)] | >128 | 64 | 32 | 128 | >128 | >128 | 64 |
| FAKKLAKALL-NH2 [P58 (38)] | >128 | > 128 | > 128 | > 128 | >128 | >128 | 64 |
| FAKLWAKLAKKL-NH2 [P136 (98)] | >128 | 128 | 128 | > 128 | >128 | >128 | 64 |
| KAKLF-NH2 [P130 (92)] | >128 | > 128 | > 128 | > 128 | >128 | >128 | >128 |
| FAKLLAKLAKAKL-NH2 [P65 (44)] | >128 | > 128 | 128 | > 128 | 64 | >128 | 64 |
| FAFGKGIGKIGKKGL-NH2 [P138 (100)] | >128 | > 128 | > 128 | > 128 | >128 | >128 | >128 |
| FALLKALKKAL-NH2 [P171 (132)] | >128 | 128 | 32 | > 128 | >128 | >128 | >128 |
| FAKGVGKVGKKAL-NH2 [P137 (99)] | >128 | > 128 | > 128 | > 128 | >128 | >128 | >128 |
| FAKKLAKKLAKAAL-NH2 [P76 (52)] | >128 | > 128 | 16 | 128 | 64 | >128 | 64 |
| FAKLLAKLAKKEL-NH2 [P126 (88)] | >128 | > 128 | > 128 | > 128 | >128 | >128 | >128 |
| VALALKALKKL-NH2 [P180 (141)] | >128 | > 128 | > 128 | > 128 | >128 | >128 | >128 |
| FAKAIAKIAFGKGIGKVGKKLL-NH2 [P134 (96)] | >128 | 128 | 128 | > 128 | 128 | >128 | 64 |
| FAKLF-NH2 [P129 (91)] | >128 | 32 | 64 | > 128 | >128 | >128 | 128 |
| FALKALKK-NH2 [P145 (107)] | >128 | > 128 | > 128 | > 128 | >128 | >128 | 64 |
| FAKLLAKLAKK-NH2 [P151 (113)] | >128 | > 128 | > 128 | > 128 | 128 | >128 | 128 |
| FGKGIGKVGKKLL-NH2 [P132 (94)] | >128 | > 128 | 128 | > 128 | >128 | >128 | 128 |
| KFKKLAKKW-NH2 [P175 (136)] | >128 | > 128 | > 128 | > 128 | >128 | >128 | >128 |
| FAKLAKKALAKLL-NH2 [P148 (110)] | >128 | 128 | 128 | > 128 | >128 | >128 | 128 |
| FAKLA-NH2 [P128 (90)] | >128 | 128 | 128 | > 128 | >128 | >128 | 128 |
| FAKLLAKLAKKSL-NH2 [P127 (89)] | >128 | 64 | 128 | > 128 | >128 | >128 | 32 |
| KFKKLAKKF-NH2 [P174 (135)] | >128 | > 128 | > 128 | > 128 | >128 | >128 | >128 |
| FALKALKKAL-NH2 [P170 (131)] | 0.128 | > 128 | 64 | > 128 | >128 | >128 | 128 |
| FAKLLAKLAKKFAL-NH2 [P120 (82)] | >128 | > 128 | > 128 | > 128 | 128 | >128 | 64 |
| FAKIIAKIAKKI-NH2 [P143 (105)] | >128 | > 128 | > 128 | > 128 | >128 | >128 | >128 |
| MPKEKVFLKIEKMGRNIRN-NH2 [P107 (71)] | >128 | > 128 | > 128 | > 128 | >128 | >128 | >128 |
